From ChEMBL document CHEMBL4020850, “Discovery of LSZ102, a Potent, Orally Bioavailable Selective Estrogen Receptor Degrader (SERD) for the Treatment of Estrogen Receptor Positive Breast Cancer” (J Med Chem, 2018)
In brackets after ≈: the same amount, converted by molar mass. Activity calls are given as the source filed them. The rule behind the calls is not given here.

Experiments:
MCF7 [1] = assay: Antiproliferative activity against human MCF7 cells after 6 days in presence of estradiol by CellTiter-Glo assay; settings: MCF7, 144 h
[2] = Equilibrium solubility in pH 6.8 buffer at 1 mM after 16 hrs by HPLC based shake flask method; assay type: physicochemical
Estrogen receptor [3] = target: T1, Estrogen receptor (Homo sapiens, UniProt P03372); assay: Induction of selective estrogen receptor alpha degradation in human MCF7 cells after 18 to 24 hrs by in-cell Western analysis; assay type: cell-based
T1 sequence (P03372 whole entry): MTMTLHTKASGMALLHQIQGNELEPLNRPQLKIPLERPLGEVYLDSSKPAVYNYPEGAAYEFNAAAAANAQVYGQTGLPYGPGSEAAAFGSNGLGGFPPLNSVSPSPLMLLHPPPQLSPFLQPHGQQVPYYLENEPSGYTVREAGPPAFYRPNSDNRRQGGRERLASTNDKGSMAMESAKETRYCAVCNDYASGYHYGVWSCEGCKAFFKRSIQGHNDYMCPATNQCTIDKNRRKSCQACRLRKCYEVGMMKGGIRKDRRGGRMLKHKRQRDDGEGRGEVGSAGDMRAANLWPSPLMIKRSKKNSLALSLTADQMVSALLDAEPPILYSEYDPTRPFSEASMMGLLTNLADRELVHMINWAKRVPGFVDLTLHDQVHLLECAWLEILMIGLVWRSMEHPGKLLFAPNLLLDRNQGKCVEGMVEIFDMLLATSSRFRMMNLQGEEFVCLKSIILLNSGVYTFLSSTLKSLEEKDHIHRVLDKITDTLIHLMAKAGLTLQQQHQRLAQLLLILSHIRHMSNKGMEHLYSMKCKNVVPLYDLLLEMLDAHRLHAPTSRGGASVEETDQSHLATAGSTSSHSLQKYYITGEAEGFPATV

Estrogen receptor [4] = target: T1, Estrogen receptor; assay: Induction of selective estrogen receptor alpha degradation in human MCF7 cells harboring TK-ERE-Luc assessed as reduction in estradiol-induced transcriptional activity after 24 hrs by luciferase reporter gene assay; assay type: cell-based
[5] = Cmax in C57BL/6 mouse at 3 mg/kg, po; assay type: ADME, organism-based; set-up: dose 3 mg/kg, route oral; settings: in vivo
[6] = Clearance in C57BL/6 mouse at 1 mg/kg, iv or 3 mg/kg, po; assay type: ADME, organism-based; settings: in vivo
[7] = Oral bioavailability in C57BL/6 mouse at 3 mg/kg; assay type: ADME, organism-based; settings: in vivo
MCF7 [8] = assay: Antitumor activity against human MCF7 cells xenografted in NOD SCID gamma mouse assessed as change in tumor volume at 5 mg, sc administered once in a week for 48 days post tumor implantation measured 7 hrs post last dose; assay type: functional
Mus musculus [9] = assay: Downregulation of progesterone receptor mRNA level in NOD SCID gamma mouse xenografted with human MCF7 cells at 5 mg, sc administered once in a week for 48 days post tumor implantation measured 7 hrs post last dose by RT-PCR method; assay type: functional, organism-based
Mus musculus [10] = assay: In vivo inhibition of ER protein level in NOD SCID gamma mouse xenografted with human MCF7 cells at 5 mg, sc administered once in a week for 48 days post tumor implantation measured 7 hrs post last dose by Western blot method relative to control; assay type: functional
Canis familiaris [11] = assay: Dose normalized AUC (0 to t) in Beagle dog at 10 mg/kg, po; assay type: ADME, organism-based, Canis lupus familiaris; settings: in vivo
Mus musculus [12] = assay: In vivo inhibition of ER protein level in NOD SCID gamma mouse xenografted with human MCF7 cells at 20 mg/kg, po qd for 48 days post tumor implantation measured 7 hrs post last dose by Western blot method relative to control; assay type: functional
[13] = Elimination half life in Beagle dog at 0.3 mg/kg, iv or 10 mg/kg, po; assay type: ADME, organism-based, Canis lupus familiaris; settings: in vivo, read-out: beta t1/2 (converted)
[14] = Cmax in NOD SCID gamma mouse xenografted with human MCF7 cells at 20 mg/kg, po qd for 19 days; assay type: ADME, organism-based; set-up: dose 20 mg/kg, route oral; settings: in vivo
[15] = Volume of distribution at steady state in Sprague-Dawley rat at 1 mg/kg, iv or 3 mg/kg, po; assay type: ADME, organism-based; settings: in vivo, read-out: Vdss
Canis familiaris [16] = assay: Dose normalized Cmax in Beagle dog at 30 mg/kg, po; assay type: ADME, organism-based, Canis lupus familiaris; settings: in vivo
Rattus norvegicus [17] = assay: Dose normalized AUC (0 to t) in Sprague-Dawley rat at 1 mg/kg, iv; assay type: ADME, organism-based; settings: in vivo
Rattus norvegicus [18] = assay: Dose normalized Cmax in Sprague-Dawley rat at 3 mg/kg, po; assay type: ADME, organism-based; settings: in vivo
MCF7 [19] = assay: Antitumor activity against human MCF7 cells xenografted in NOD SCID gamma mouse assessed as change in tumor volume at 20 mg/kg, po qd for 48 days post tumor implantation measured 7 hrs post last dose; assay type: functional
Canis familiaris [20] = assay: Dose normalized Cmax in Beagle dog at 10 mg/kg, po; assay type: ADME, organism-based, Canis lupus familiaris; settings: in vivo
Canis familiaris [21] = assay: Dose normalized AUC (0 to t) in Beagle dog at 30 mg/kg, po; assay type: ADME, organism-based, Canis lupus familiaris; settings: in vivo
[22] = Clearance in Beagle dog at 0.3 mg/kg, iv or 10 mg/kg, po; assay type: ADME, organism-based, Canis lupus familiaris; settings: in vivo
[23] = Elimination half life in Sprague-Dawley rat at 1 mg/kg, iv or 3 mg/kg, po; assay type: ADME, organism-based; settings: in vivo, read-out: beta t1/2 (converted)
[24] = Oral bioavailability in Sprague-Dawley rat at 3 mg/kg; assay type: ADME, organism-based; settings: in vivo
Canis familiaris [25] = assay: Dose normalized AUC (0 to t) in Beagle dog at 0.3 mg/kg, iv; assay type: ADME, organism-based, Canis lupus familiaris; settings: in vivo
[26] = AUC in NOD SCID gamma mouse xenografted with human MCF7 cells at 20 mg/kg, po qd for 19 days; assay type: ADME, organism-based; settings: in vivo
[27] = Volume of distribution at steady state in Beagle dog at 0.3 mg/kg, iv or 10 mg/kg, po; assay type: ADME, organism-based, Canis lupus familiaris; settings: in vivo, read-out: Vdss
Rattus norvegicus [28] = assay: Dose normalized Cmax in Wistar Han rat at 100 mg/kg, po; assay type: ADME, organism-based; settings: in vivo
Rattus norvegicus [29] = assay: Dose normalized Cmax in Wistar Han rat at 300 mg/kg, po; assay type: ADME, organism-based; settings: in vivo
[30] = AUC in Beagle dog at 10 mg/kg, po; assay type: ADME, organism-based, Canis lupus familiaris; settings: in vivo
Rattus norvegicus [31] = assay: Dose normalized AUC (0 to t) in Wistar Han rat at 100 mg/kg, po; assay type: ADME, organism-based; settings: in vivo
Rattus norvegicus [32] = assay: Dose normalized AUC (0 to t) in Wistar Han rat at 30 mg/kg, po; assay type: ADME, organism-based; settings: in vivo
[33] = Clearance in Sprague-Dawley rat at 1 mg/kg, iv or 3 mg/kg, po; assay type: ADME, organism-based; settings: in vivo
Rattus norvegicus [34] = assay: Dose normalized AUC (0 to t) in Sprague-Dawley rat at 3 mg/kg, po; assay type: ADME, organism-based; settings: in vivo
[35] = Oral bioavailability in Beagle dog at 10 mg/kg; assay type: ADME, organism-based, Canis lupus familiaris; settings: in vivo
Mus musculus [36] = assay: Downregulation of progesterone receptor mRNA level in NOD SCID gamma mouse xenografted with human MCF7 cells at 20 mg/kg, po qd for 48 days post tumor implantation measured 7 hrs post last dose by RT-PCR method; assay type: functional, organism-based
Rattus norvegicus [37] = assay: Dose normalized Cmax in Wistar Han rat at 30 mg/kg, po; assay type: ADME, organism-based; settings: in vivo
Canis familiaris [38] = assay: Clearance in Beagle dog at 0.3 mg/kg, iv or 10 mg/kg, po relative to hepatic blood flow; assay type: ADME, organism-based, Canis lupus familiaris; settings: in vivo
Rattus norvegicus [39] = assay: Dose normalized AUC (0 to t) in Wistar Han rat at 300 mg/kg, po; assay type: ADME, organism-based; settings: in vivo
[40] = Cmax in Sprague-Dawley rat at 3 mg/kg, po; assay type: ADME, organism-based; set-up: dose 3 mg/kg, route oral; settings: in vivo

CC/C(=C(\c1ccc(O)cc1)c1ccc(OCCN(C)C)cc1)c1ccccc1 [AFIMOXIFENE]
IC50 (MCF7 [1]): 9.9 nM

CNC(=O)/C=C/c1ccc(Oc2c(-c3ccc(O)cc3)sc3cc(O)ccc23)cc1
solubility thermodynamic at 16 h, 1000 µM [2]: < 5 µM

O=C(/C=C/c1ccc(Oc2c(-c3ccc(O)cc3)sc3cc(O)ccc23)cc1)NCCC(F)(F)F
solubility thermodynamic at 16 h, 1000 µM [2]: < 5 µM

COCc1ccccc1-c1sc2cc(O)ccc2c1Oc1ccc(/C=C/C(=O)O)cc1
IC50 (Estrogen receptor [3]): 3 nM

Oc1ccc(-c2sc3cc(O)ccc3c2Oc2ccc(/C=C/c3nnn[nH]3)cc2)cc1
solubility thermodynamic at 16 h, 1000 µM [2]: 190 µM (≈ 81.4 µg/mL) | IC50 (Estrogen receptor [4]): 219 nM

CC/C(=C(/c1ccc(/C=C/C(=O)O)cc1)c1ccc2[nH]ncc2c1)c1ccc(F)cc1Cl [BRILANESTRANT]
Cmax [5]: 1240 nM | clearance [6]: 16 mL/min/kg | bioavailability [7]: 42%

C[C@]12CC[C@@H]3c4ccc(O)cc4C[C@@H](CCCCCCCCC[S+]([O-])CCCC(F)(F)C(F)(F)F)[C@H]3[C@@H]1CC[C@@H]2O (some centres undefined) [FULVESTRANT]
T/C (MCF7 [8]): 24% | Activity (Mus musculus [9]): Active | inhibition (INH) (Mus musculus [10]): 67%

Oc1ccc(-c2sc3cc(O)ccc3c2Oc2ccc(/C=C/c3c[nH]cn3)cc2)cc1
solubility thermodynamic at 16 h, 1000 µM [2]: < 5 µM

NC(=O)/C=C/c1ccc(Oc2c(-c3ccc(O)cc3)sc3cc(O)ccc23)cc1
solubility thermodynamic at 16 h, 1000 µM [2]: < 5 µM

CC(F)(F)c1cc(F)ccc1-c1sc2cc(O)ccc2c1Oc1ccc(/C=C/C(=O)O)cc1 [LSZ-102]
AUCt/dose (Canis familiaris [11]): 962 nM·h | inhibition in vivo at 20 mg/kg (Mus musculus [12]): 63% | half-life [13]: 246 min | Cmax [14]: 1070 nM | Vd [15]: 0.9 L/kg | Cmax/dose (Canis familiaris [16]): 123 nM | AUCt/dose (Rattus norvegicus [17]): 1849 nM·h | Cmax/dose (Rattus norvegicus [18]): 240 nM | IC50 (MCF7 [1]): 1.7 nM | Cmax [5]: 492 nM | T/C (MCF7 [19]): 2.4% | Cmax/dose (Canis familiaris [20]): 268 nM | AUCt/dose (Canis familiaris [21]): 624 nM·h | clearance [22]: 5 mL/min/kg | clearance [6]: 28 mL/min/kg | half-life [23]: 84 min | bioavailability [24]: 33% | bioavailability [7]: 12% | AUCt/dose (Canis familiaris [25]): 7713 nM·h | AUC at 456 h [26]: 3.23 µM·h | Vd [27]: 0.3 L/kg | Cmax/dose (Rattus norvegicus [28]): 513 nM | Cmax/dose (Rattus norvegicus [29]): 334 nM | AUC [30]: 9.62 µM·h | AUCt/dose (Rattus norvegicus [31]): 1940 nM·h | AUCt/dose (Rattus norvegicus [32]): 2117 nM·h | clearance [33]: 19 mL/min/kg | AUCt/dose (Rattus norvegicus [34]): 620 nM·h | bioavailability [35]: 12% | Activity (Mus musculus [36]): Active | Cmax/dose (Rattus norvegicus [37]): 1259 nM | CL (Canis familiaris [38]): 15% | AUCt/dose (Rattus norvegicus [39]): 3405 nM·h

O=C(O)/C=C/c1ccc(Oc2c(-c3ccc(O)cc3)sc3cc(O)ccc23)cc1
solubility thermodynamic at 16 h, 1000 µM [2]: 340 µM (≈ 138 µg/mL) | Cmax [40]: 80 nM | bioavailability [24]: 6% | clearance [33]: 54 mL/min/kg

O=C(O)/C=C/c1ccc(Oc2c(-c3ccc(F)cc3C(F)(F)F)sc3cc(O)ccc23)cc1
Cmax [5]: 1500 nM | clearance [6]: 18 mL/min/kg | bioavailability [7]: 30%
